Where two headings read alike, the source gives them in different places.
Experiments:
Format in all cases: in vivo
[1] = system: Digitaria sanguinalis; test: Greenhouse post-emergence (POST) herbicidal test on DIGSA; settings: Digitaria sanguinalis, post-emergence, 480 h, POST, DIGSA, 5 gai/ha, 20 DAT; read-out: % activity solo application
In short: (§1)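 Visual damage rating on a 0–100 scale, 0 meaning normal growth and 100 complete kill of above-ground parts, taken 20 days after treatment. Spray applied post-emergence to plants 3–15 cm tall in loamy sand with approximately 3.0% humus.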

[2] = system: Commelina benghalensis; test: Greenhouse post-emergence (POST) herbicidal test on COMBE; settings: 480 h, use rate 1.25 gai/ha, 20 DAT
Description: (§2) The culture containers used were plastic pots containing loamy sand with approximately 3.0% of humus as substrate. The seeds of the test plants were sown separately for each species.
(§3) For the post-emergence treatment, the test plants were grown to a plant height of from 3 to 15 cm, depending on the plant habit, and only then treated with the active compounds which had been suspended or emulsified in water. To this end, the test plants were either sown directly, and grown in the same containers, or they were first grown separately as seedlings and transplanted into the test containers a few days prior to treatment.
(§4) Depending on the species, the plants were kept at 10-25° C. and 20-35° C., respectively.
(§5) The test period extended over 2 to 4 weeks. During this time, the plants were tended and their response to the individual treatments was evaluated.
(§6) Evaluation was carried out using a scale from 0 to 100. 100 means no emergence of the plants, or complete destruction of at least the above-ground parts, and 0 means no damage or normal course of growth. A good herbicidal activity is given at values of at least 70, and very good herbicidal activity is given at values of at least 85.
(§7) If not stated differently, the respective components A and B, and if appropriate, C were formulated as a 5% by weight strength emulsion concentrate and, with addition of the amount of solvent system, introduced into the spray liquor used for applying the active compound.
(§8) As indicated application was either post emergent (POST) at the respective growth stage (GS) of the weed (BBCH code), or pre-emergent (PRE).
(§9) Assessment was 20 days after treatment (DAT).

[3] = system: Setaria viridis; test: Greenhouse post-emergence (POST) herbicidal test on SETVI; settings: 480 h, use rate 5 gai/ha, 20 DAT
Description: as §2, §3, §4, §5, §6, §7, §8, §9

[4] = system: Ipomoea hederacea; test: Greenhouse post-emergence (POST) herbicidal test on IPOHE; settings: Ipomoea hederacea, post-emergence, 480 h, POST, IPOHE, 20 DAT, read-out: % activity solo application
In short: as §1

[5] = system: Lolium multiflorum; test: Greenhouse pre-emergence (PRE) herbicidal test on LOLMU; settings: for inhibition at 200 g/ha: use rate 200 gai/ha
In short: (§10)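 Scoring ran from 0 (normal growth) to 100 (no emergence or above-ground parts fully destroyed) and was done 20 DAT. Application was pre-emergent in pots of loamy sand (~3.0% humus) sown per species. Plants grew at 10-25° C or 20-35° C by species.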

[6] = system: Amaranthus retroflexus; test: Greenhouse post-emergence (POST) herbicidal test on AMARE; settings: Amaranthus retroflexus, post-emergence, 480 h, POST, AMARE, 20 DAT, read-out: % activity solo application
In short: as §1

[7] = system: Ipomoea hederacea; test: Greenhouse pre-emergence (PRE) herbicidal test on IPOHE; settings: Ipomoea hederacea, pre-emergence, 480 h, PRE, IPOHE, 20 DAT
From the text: as §2
(§11) For the pre-emergence treatment, the active compounds, suspended or emulsified in water, were applied directly after sowing by means of finely distributing nozzles. The containers were irrigated gently to promote germination and growth and subsequently covered with transparent plastic hoods until the plants had rooted. This cover caused uniform germination of the test plants unless this was adversely affected by the active compounds.
as §4, §5, §6, §7, §8, §9

[8] = system: Abutilon theophrasti; test: Greenhouse post-emergence (POST) herbicidal test on ABUTH; settings: Abutilon theophrasti, post-emergence, 480 h, POST, ABUTH, 20 DAT, read-out: % activity solo application
In short: as §1

[9] = system: Echinochloa crus-galli; test: Greenhouse pre-emergence (PRE) herbicidal test on ECHCG; settings: Echinochloa crus-galli, pre-emergence, 480 h, PRE, ECHCG, 20 DAT, read-out: % activity solo application
[10] = system: Abutilon theophrasti; test: Greenhouse pre-emergence (PRE) herbicidal test on ABUTH
In short: as §10

[11] = system: Alopecurus myosuroides; test: Greenhouse pre-emergence (PRE) herbicidal test on ALOMY; settings: Alopecurus myosuroides, pre-emergence
In short: as §10

[12] = system: Setaria viridis; test: Greenhouse pre-emergence (PRE) herbicidal test on SETVI; settings: Setaria viridis, pre-emergence, 480 h, PRE, SETVI, 20 DAT, read-out: % activity solo application
In short: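 Visual rating on a 0 (normal growth) to 100 (no emergence or above-ground kill) scale at 20 DAT. Treatment was pre-emergence spray of aqueous suspension/emulsion right after sowing into loamy sand with ~3.0% humus; covered until rooted, grown at 10-25° C or 20-35° C depending on species.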

[13] = system: Commelina benghalensis; test: Greenhouse pre-emergence (PRE) herbicidal test on COMBE; settings: Commelina benghalensis, pre-emergence
In short: as §10

[14] = system: Amaranthus retroflexus; test: Greenhouse pre-emergence (PRE) herbicidal test on AMARE; settings: Amaranthus retroflexus, pre-emergence, 480 h; PRE, AMARE, 1.25 gai/ha, 20 DAT; read-out: % activity solo application
In short: as §10

[15] = system: Geranium pusillum; test: Greenhouse post-emergence (POST) herbicidal test on GERPU; settings: Geranium pusillum, post-emergence, 480 h, POST, GERPU, 20 DAT
In short: as §1

[16] = system: Ambrosia artemisiifolia; test: Greenhouse pre-emergence (PRE) herbicidal test on AMBEL; settings: PRE, 20 DAT
[17] = system: Euphorbia heterophylla; test: Greenhouse pre-emergence (PRE) herbicidal test on EPHHL; settings: for inhibition at 200 g/ha: use rate 200 gai/ha
In short: as §10

[18] = system: Galium aparine; test: Greenhouse pre-emergence (PRE) herbicidal test on GALAP; settings: PRE, GALAP; for inhibition at 200 g/ha: use rate 200 gai/ha
From the text: as §2, §11, §4, §5, §6, §7, §8, §9

[19] = system: Polygonum convolvulus; test: Greenhouse pre-emergence (PRE) herbicidal test on POLCO
From the text: as §2, §11, §4, §5, §6, §7, §8, §9

[20] = system: Geranium pusillum; test: Greenhouse pre-emergence (PRE) herbicidal test on GERPU; settings: Geranium pusillum, pre-emergence; for inhibition at 200 g/ha: use rate 200 gai/ha
From the text: as §2, §11, §4, §5, §6, §7, §8, §9

[21] = system: Brachiaria decumbens; test: Greenhouse pre-emergence (PRE) herbicidal test on BRADC; settings: Urochloa decumbens; for inhibition at 200 g/ha: use rate 200 gai/ha
From the text: as §2, §11, §4, §5, §6, §7, §8, §9

[22] = system: SETFA; test: Greenhouse pre-emergence (PRE) herbicidal test on SETFA; settings: Setaria faberi, use rate 50 gai/ha
[23] = system: Avena fatua; test: Greenhouse pre-emergence (PRE) herbicidal test on AVEFA
From the text: as §2, §11, §4, §5, §6, §7, §8, §9

[24] = system: AMAPA; test: Greenhouse pre-emergence (PRE) herbicidal test on AMAPA; settings: use rate 3.1 gai/ha, 20 DAT
[25] = system: AMAPA; test: Greenhouse post-emergence (POST) herbicidal test on AMAPA; settings: use rate 12.5 gai/ha, 20 DAT

Compound: CC(C)N(C)S(=O)(=O)NC(=O)c1cc(-n2c(=O)cc(C(F)(F)F)n(C)c2=O)c(F)cc1Cl [Saflufenacil, saflufenacil]
- inhibition at 5 g/ha [1]: 0%
- inhibition at 1.25 g/ha [2]: 60%
- inhibition at 5 g/ha [3]: 60%
- inhibition at 1.25 g/ha ([4]; 1.25 gai/ha): 0%
- inhibition at 5 g/ha ([4]; 5 gai/ha): 10%
- inhibition at 1.25 g/ha ([5]; Lolium multiflorum, pre-emergence, 480 h, PRE, LOLMU, 1.25 gai/ha, 20 DAT, read-out: % activity solo application): 0%
- inhibition at 5 g/ha ([5]; Lolium multiflorum, pre-emergence, 480 h, PRE, LOLMU, 5 gai/ha, 20 DAT, read-out: % activity solo application): 0%
- inhibition at 5 g/ha ([5]; Lolium multiflorum, pre-emergence, 480 h, PRE, LOLMU, use rate 5 gai/ha, 20 DAT, read-out: % activity): 45%
- inhibition at 1.25 g/ha ([6]; 1.25 gai/ha): 0%
- inhibition at 5 g/ha ([6]; 5 gai/ha): 0%
- inhibition at […] ([7]; use rate 2.5 gai/ha): 5%
- inhibition at 5 g/ha ([7]; use rate 5 gai/ha): 25%
- inhibition at 1.25 g/ha ([8]; 1.25 gai/ha): 5%
- inhibition at 5 g/ha ([8]; 5 gai/ha): 10%
- inhibition at 1.25 g/ha ([9]; 1.25 gai/ha): 0%
- inhibition at 5 g/ha ([9]; 5 gai/ha): 0%
- inhibition at 1.25 g/ha ([10]; Abutilon theophrasti, pre-emergence, 480 h, PRE, ABUTH, 1.25 gai/ha, 20 DAT, read-out: % activity solo application): 10%
- inhibition at 1.25 g/ha ([11]; 480 h, PRE, ALOMY, 1.25 gai/ha, 20 DAT, read-out: % activity solo application): 20%
- inhibition at 5 g/ha ([11]; 480 h, PRE, ALOMY, 5 gai/ha, 20 DAT, read-out: % activity solo application): 10%
- inhibition at 1.25 g/ha ([12]; 1.25 gai/ha): 0%
- inhibition at 5 g/ha ([12]; 5 gai/ha): 0%
- inhibition at 1.25 g/ha ([13]; 480 h, PRE, COMBE, 1.25 gai/ha, 20 DAT, read-out: % activity solo application): 5%
- inhibition at 1.25 g/ha [14]: 0%
- inhibition at […] ([15]; use rate 2.5 gai/ha): 60%
- inhibition at 5 g/ha ([15]; use rate 5 gai/ha, read-out: % activity): 80%
- inhibition at 1.25 g/ha ([16]; Ambrosia artemisiifolia, pre-emergence, 480 h, AMBEL, 1.25 gai/ha, read-out: % activity solo application): 0%
- inhibition at 5 g/ha ([16]; Ambrosia artemisiifolia, pre-emergence, 480 h, AMBEL, 5 gai/ha, read-out: % activity solo application): 50%
- inhibition at 1.25 g/ha ([17]; Euphorbia heterophylla, pre-emergence, 480 h, PRE, EPHHL, 1.25 gai/ha, 20 DAT, read-out: % activity solo application): 5%
- inhibition at 5 g/ha ([17]; Euphorbia heterophylla, pre-emergence, 480 h, PRE, EPHHL, 5 gai/ha, 20 DAT, read-out: % activity solo application): 50%

Compound: CC1(C)CON(Cc2ccc(Cl)cc2Cl)C1=O [Bixlozone, bixlozone]
- % activity ([18]; use rate 60 gai/ha): 50%
- % activity ([10]; PRE, ABUTH, use rate 60 gai/ha): 0%
- % activity ([19]; use rate 60 gai/ha): 0%
- % activity ([17]; PRE, EPPHL, use rate 15 gai/ha): 0%
- % activity ([17]; PRE, EPPHL, use rate 60 gai/ha): 0%

Compound: CCCOCCN(C(=O)CCl)c1c(CC)cccc1CC [Pretilachlor, pretilachlor]
- inhibition at 200 g/ha ([18]; Galium aparine, pre-emergence): 15%
- inhibition at 200 g/ha ([20]; PRE, GERPU): 45%
- inhibition at 25 g/ha ([5]; Lolium multiflorum, pre-emergence, PRE, LOLMU, use rate 25 gai/ha): 0%
- inhibition at 25 g/ha ([21]; PRE, BRADC, use rate 25 gai/ha): 0%
- inhibition at 200 g/ha ([21]; PRE, BRADC): 40%
- inhibition at 25 g/ha ([19]; Fallopia convolvulus, pre-emergence, use rate 25 gai/ha): 0%
- inhibition at 200 g/ha ([19]; Fallopia convolvulus, pre-emergence, use rate 200 gai/ha): 30%
- inhibition at 25 g/ha ([17]; Euphorbia heterophylla, pre-emergence, PRE, EPPHL, use rate 25 gai/ha): 0%
- inhibition at 200 g/ha ([17]; Euphorbia heterophylla, pre-emergence, PRE, EPPHL): 10%

Compound: CCCCOCN(C(=O)CCl)c1c(CC)cccc1CC [Butachlor, butachlor]
- inhibition at 50 g/ha ([20]; GERPU PRE, use rate 50 gai/ha): 55%
- inhibition at 200 g/ha ([20]; GERPU PRE): 25%
- inhibition at 50 g/ha ([5]; Lolium multiflorum, pre-emergence, LOLMU PRE, use rate 50 gai/ha): 0%
- inhibition at 200 g/ha ([5]; Lolium multiflorum, pre-emergence, LOLMU PRE): 0%
- inhibition at 50 g/ha ([10]; Abutilon theophrasti, pre-emergence, ABUTH PRE, use rate 50 gai/ha): 0%
- inhibition at 200 g/ha ([21]; BRADC PRE): 30%
- inhibition at 200 g/ha ([11]; ALOMY PRE, use rate 200 gai/ha): 0%
- inhibition at 50 g/ha ([13]; COMBE PRE, use rate 50 gai/ha): 70%
- inhibition at 50 g/ha [22]: 25%
- inhibition at 200 g/ha ([17]; Euphorbia heterophylla, pre-emergence, EPHHL PRE): 5%
- inhibition at 50 g/ha ([23]; use rate 50 gai/ha): 0%
- inhibition at 200 g/ha ([23]; use rate 200 gai/ha): 0%

Compound: CCC(CC)Nc1c([N+](=O)[O-])cc(C)c(C)c1[N+](=O)[O-] [Pendimethalin, pendimethalin]
- inhibition at 200 g/ha ([18]; Galium aparine, pre-emergence): 0%
- inhibition at 800 g/ha ([18]; Galium aparine, pre-emergence, use rate 800 gai/ha): 10%
- inhibition at 200 g/ha ([5]; Lolium multiflorum, pre-emergence, PRE, LOLMU): 0%
- inhibition at 200 g/ha ([10]; Abutilon theophrasti, pre-emergence, PRE, ABUTH, use rate 200 gai/ha): 65%
- inhibition at 800 g/ha ([19]; Fallopia convolvulus, pre-emergence, use rate 800 gai/ha): 70%
- inhibition at 200 g/ha ([13]; PRE, COMBE, use rate 200 gai/ha): 40%
- inhibition at 800 g/ha ([13]; PRE, COMBE, use rate 800 gai/ha): 50%

Compound: C#CCN(C)c1c(C#N)cnn1-c1nn2c(c1Cl)CCCC2 [Pyraclonil, pyraclonil]
- % activity ([5]; PRE, use rate 12.5 gai/ha, 20 DAT): 0%
- % activity [24]: 50%
- % activity ([16]; use rate 12.5 gai/ha): 0%
- % activity [25]: 90%

Source: patent US20260007133A1, “HERBICIDAL COMPOSITION COMPRISING AZINE COMPOUNDS” (BASF SE, priority 2022, published 2026)
